{"source": "patent US20150139973A1", "about": "“OPHTHALMOLOGICAL VEHICLE SYSTEM FOR DRUGS, OPHTHALMOLOGICAL KIT AND ALSO USE OF AN OPHTHALMOLOGICAL COMPOSITION” (F. HOLZER GMBH, priority 2012, published 2015)", "tested_on": "human corneal epithelial cell line HCE-T", "test": "Vitality determination on corneal epithelial cells in culture (Cell Titer Blue test)", "type": "cell-based", "settings": "60 minutes incubation", "protocol": "The cytotoxicity tests were performed on the human corneal epithelial cell line […]. in the cell test. Cultivation was effected in a black 96 well plate (Nunc). Per well, 25,000 cells were sown and cultivated for 48 h. Determination of the viability was implemented with the Cell Titer Blue® test. The dye resazurin is hereby added to the cells after exposure with the samples. Viable cells are able, because of their mitochondrial activity, to convert the resazurin into the fluorescent resorufin which can be determined fluorimetrically (Illustration 1). Via positive control (Krebs-Ringer-buffer-KRB and saline phosphate buffer-PBS) and also negative control (lysis buffer), the viability of the cells can be expressed as a percentage. All samples were determined with n=6. For the determination, the cell culture medium was removed, the cells were rinsed with KRB and incubated for 60 minutes with the various samples and also controls. […] Thereafter, all samples were treated with KRB and resazurin according to Promega protocol and measured with a Genios Plate Reader (Tecan)."}
{"smiles": "CCCCCCCCCCCCCCCC(=O)OC(C)C", "note": "[Sample K4, isopropyl palmitate]", "values": [{"measurement": "cytotoxicity", "value": "lowest cytotoxicity"}, {"measurement": "survival rate of the cells", "value": 100, "unit": "%"}]}
